In data set [1] the target is T1, IKZF1 (Homo sapiens, UniProt Q13422+Q96SW2). The data set can be described thus: In vivo ubiquitination assay of IKZF1 by CRBN in HEK293T cells (Ni-NTA pull down). In kind it is cell-based. More on the design: expressed in transfected cells; host or cells: HEK293T. As to conditions: UVA irradiation (365 nm) 15 min. As to the method: Briefly, HEK293T cells were transfected with Flag-CRBN, His-ubiquitin and HA-IKZF1 or GFP-BRD2 or GFP-BRD3. 24 hours after transfection, pomalidomide, opto-pomalidomide, dBET1 or opto-dBET1 were added to the cell culture together with 10 μM MG132 for 12 hours and cells were harvested in denatured buffer A (6 M guanidine-HCl, pH 8.0, 0.1 M Na2HPO4/NaH2PO4, 10 mM imidazole). After sonication, the ubiquitinated proteins were purified by incubation with Ni-NTA matrices for 3 hours at room temperature. The pull-down products were washed sequentially twice in buffer A, twice in buffer ANTI mixture (buffer A: buffer TI=1:3) and once in buffer TI (25 mM Tris-HCl, pH 6.8, 20 mM imidazole). The poly-ubiquitinated proteins were separated by SDS-PAGE for immunoblot analysis.

Data set [2] has as its system IKZF1/3. The data set can be described thus: IKZF1/3 degradation, immunoblot of MM1S cells. In kind it is cell-based. On the procedure:
(§1) MM.1S, MT2, C4-2, NCI-H2228 and NCI-H3122 cells were cultured in RPMI1640 containing 10% fetal bovine serum (FBS), 100 Units of penicillin and 100 μg/ml streptomycin. […] For UVA irradiation, cells were pretreated with opto-PROTACs for 2-4 hours, and then subjected to UVA irradiation for indicated durations.
(§2) Cells were lysed in EBC lysis buffer (50 mM Tris pH 7.5, 120 mM NaCl, 0.5% NP-40), supplemented with protease inhibitors (cOmplete Mini, Roche) and phosphatase inhibitors (phosphatase inhibitor cocktail set I and II, Calbiochem). The protein concentrations of the lysates were measured using the Bio-Rad protein assay reagent on a Beckman Coulter DU-800 spectrophotometer. The lysates were then resolved by sodium dodecylsulfate-polyacrylamide gel ectrophoresis (SDS-PAGE) and immunoblotted with indicated antibodies. For immunoprecipitation, 1 mg lysates were incubated with the appropriate sepharose beads for 4 h at 4° C. Immuno-complexes were washed four times with NETN lysis buffer (20 mM Tris, pH 8.0, 100 mM NaCl, 1 mM EDTA and 0.5% NP-40) before being resolved by SDS-PAGE and immunoblotted with indicated antibodies.

In data set [3] the target is T1, IKZF1. Briefly: IKZF1 degradation, immunoblot of MT2 cells. In kind it is cell-based. On the set-up: endogenous in cells; host or cells: MT2. The note with it: with UVA irradiation. As to the method: (§3) Human embryonic kidney 293T (HEK293T) cells and HEK293FT were maintained in Dulbecco's Modified Eagle's Medium (DMEM) containing 10% fetal bovine serum (FBS), 100 Units of penicillin and […] streptomycin. MM.1S, MT2, C4-2, NCI-H2228 and NCI-H3122 cells were cultured in RPMI1640 containing 10% fetal bovine serum (FBS), 100 Units of penicillin and 100 μg/ml streptomycin. 293FT^CRBN+/+, 293FT^CRBN+/+ , MM.1S^CRBN+/+ and MM.1S^CRBN−/− cells were provided Dr. William G. Kaelin (Dana-Farber Cancer Institute). For UVA irradiation, cells were pretreated with opto-PROTACs for 2-4 hours, and then subjected to UVA irradiation for indicated durations.
as §2, with “Immuno-complexes were washed four times with NETN lysis buffer (20 mM Tris, pH 8.0, 100 mM NaCl, 1 mM EDTA and 0.5% NP-40) before being resolved by SDS-PAGE and immunoblotted with indicated antibodies.” left out

Data set [4] has as its target T2, CRBN and IKZF1 (Homo sapiens, UniProt Q13422+Q96SW2).
T2 construct: expressed in transfected cells; host or cells: HEK293T
The data set can be described thus: CRBN-IKZF1 interaction, Flag-IP and immunoblot in HEK293T cells. In kind it is cell-based. The note with it: 10 μM MG132 12 hours. On the procedure: as §1, §2

Data set [5] can be described thus: UV-VIS absorption spectrum. In kind it is physicochemical. The note with it: in DMSO. On the procedure:
(§4) UV-Vis spectrometry was performed on a NanoDrop-2000 UV-Visible Spectrophotometer. Pomalidomide, opto-pomalidomide, dBET1, opto-dBET1, dALK and opto-dALK were dissolved in DMSO and diluted to indicated concentration, followed by UVA irradiation for indicated duration of time. Then the samples were subjected to UV-Vis spectrometry analysis. Pomalidomide and opto-pomalidomide mixture solutions were made with the indicated ratio. Absorption values at 364 nm were measured to draw standard curve. dBET1 and opto-dBET1 mixture solution were made with the indicated ratios. Absorption values at 340 nm were measured to draw standard curve. dALK and opto-dALK mixture solution were made with indicated ratio. Absorption values at 370 nm were measured to draw standard curve.

Data set [6] is described as follows: Uncaging (photolysis) by UVA irradiation in vitro, UV-VIS absorption / UPLC-MS analysis. It is filed as physicochemical. The note with it: 1 mM, UVA 365 nm, time course. As to the method:
HPLC spectra were acquired using an Agilent 1200 Series system with DAD detector for all the intermediates and Opto-PROTACs below. Chromatography was performed on a 2.1×150 mm Zorbax 300SB-C18 5 μm column with water containing 0.1% formic acid as solvent A and acetonitrile containing 0.1% formic acid as solvent B at a flow rate of 0.4 ml/min. The gradient program was as follows: 1% B (0-1 min), 1-99% B (1-4 min), and 99% B (4-8 min). High-resolution mass spectra (FIRMS) data were acquired in positive ion mode using an Agilent G1969A API-TOF with an electrospray ionization (ESI) source. Nuclear Magnetic Resonance (NMR) spectra were acquired on a Bruker DRX-600 spectrometer with 600 MHz for proton (^1H NMR) and 151 MHz for carbon (^13C NMR); chemical shifts are reported in (δ). Preparative HPLC was performed on Agilent Prep 1200 series with UV detector set to 254 nm. Samples were injected onto a Phenomenex Luna 250×30 mm, 5 μm, C18 column at room temperature. The flow rate was 40 ml/min. A linear gradient was used with 10% of acetonitrile (A) in H2O (with 0.1% TFA) (B) to 100% of acetonitrile (A). HPLC was used to establish the purity of target compounds. All final compounds had >95% purity using the HPLC methods described above.
as §4

The target of data set [7] is T3, CRBN (Homo sapiens, UniProt Q96SW2).
T3 construct: made in house; host or cells: HEK293T
Briefly: Competitive binding in vitro pull-down assay (biotin-pomalidomide pulls down Flag-CRBN). On the procedure: Flag-CRBN was expressed in HEK293T cells lysed in PROTAC buffer B (50 mM Tris pH 7.5, 150 mM NaCl, 0.5% NP-40) supplemented with protease inhibitors (cOmplete Mini, Roche) and phosphatase inhibitors (phosphatase inhibitor cocktail set I and II, Calbiochem). 3mg cell lysis was incubated with 10 μl 10mM biotin-pomalidomide and […] streptavidin beads for 1 h at 4° C. in the absence or presence of pomalidomide or opto-pomalidomide. Then, the beads were washed four times with NETN buffer (20 mM Tris, pH 8.0, 100 mM NaCl, 1 mM EDTA and 0.5% NP-40) before being resolved by SDS-PAGE and immunoblotted with indicated antibodies.

For data set [8], the system named is MT2 cells. Briefly: CCK-8 cell viability assay, MT2 cells. In kind it is cell-based. The note with it: UVA irradiation (365 nm) 15 min. As to the method:
as §3
(§5) Cell in 96-well plates were incubated with 10 ul/well of CCK-8 solution and incubated for 2 hours, followed by the measurement of optical density using a microplate reader with a 450 nm filter (O.D. 450).
On the technique in general: Formazan colour is commonly taken as a measure of viable cells.

Data set [9] concerns MM1S cells. The data set can be described thus: CCK-8 cell viability assay, MM1S cells. In kind it is cell-based. As to conditions: MM1S cells, UVA irradiation (365 nm) 15 min. As to the method:
as §3, §5

The text below walks through data of patent US20220288207A1, “PHOTO INDUCED CONTROL OF PROTEIN DESTRUCTION” (Beth Israel Deaconess Medical Center, Inc., priority 2019, published 2022).

“Also recorded” adds a separate entry of the source.

On to `COc1cc(COC(=O)N2C(=O)CCC(N3C(=O)c4cccc(N)c4C3=O)C2=O)c([N+](=O)[O-])cc1OC` (stereo not drawn) [opto-pomalidomide, 4,5-dimethoxy-2-nitrobenzyl 3-(4-amino-1,3-dioxoisoindolin-2-yl)-2,6-dioxopiperidine-1-carboxylate], for which the “ubiquitination of IKZF1 by CRBN” value in data set [1] is “leading to CRBN-mediated IKZF1 ubiquitination”. The “degradation of IKZF1/3” value in data set [2] (MM1S cells, UVA irradiation (365 nm) for different durations) was “occurred in a drug-dose and UVA-dose dependent manner”; in data set [2] (MM1S-CRBN+/+ vs. MM1S-CRBN−/− cells, 12 hours, without UVA irradiation, opto-drug up to 10-fold excess), “lost this function without UVA irradiation”. The “degradation of IKZF1” value in [3] is “mediate IKZF1 degradation in MT2 cells”. The “interaction between CRBN and IKZF1” value was “regained the ability to promote the binding between CRBN and IKZF 1” in data set [4] (UVA irradiation (365 nm) 15 min); “ineffective in guiding the protein-protein interaction between CRBN and IKZF1” in data set [4] (without UVA irradiation). Also, in data set [5], the “maximum in absorption of UV-VIS absorption spectrum” value came out at 364 nm. Besides, the “uncaging (photolysis) by UVA irradiation in vitro” value in data set [6] was “could be induced to undergo photolysis by UVA irradiation in vitro”. The “binding with CRBN” value in data set [7] (after UVA irradiation (365 nm, 30 min)) is reported as “regained ability to bind with CRBN”; in [7] (without UVA irradiation), “ineffective to bind with CRBN in vitro”. The “cell proliferation (CCK-8)” value in data set [8] is recorded as “inhibits MT2 cell proliferation in a dose-dependent manner”; in data set [9] it was “largely dependent on UVA irradiation; also recorded: inhibits MM1S cell proliferation in a dose-dependent manner”.
